Here are results for 24 compounds from ChEMBL document CHEMBL3860023, “Structural optimization of pyridine-type DAPY derivatives to exploit the tolerant regions of the NNRTI binding pocket” (Eur J Med Chem, 2016).

Series [1] deals with Human immunodeficiency virus 1. Put plainly: Antiviral activity against HIV1 RES056 expressing reverse transcriptase K103N/Y181C double mutant infected in human MT4 cells assessed as protection against virus-induced cytopathic effect after 5 days by MTT assay. In kind it is functional, cell-based. As to conditions: Human immunodeficiency virus 1, RES056, MT4, 120 h.
A short description of series [2]: Cytotoxicity against mock-infected human MT4 cells assessed as reduction in cell viability after 5 days by MTT assay. It counts as toxicity, cell-based. (Tetrazolium dyes change colour on reduction, which living cells bring about.)
A short description of series [3]: Solubility of the compound. In kind it is physicochemical.
Series [4] in a line: Selectivity index, ratio of CC50 for mock-infected human MT4 cells to EC50 for HIV1 RES056 expressing reverse transcriptase K103N/Y181C double mutant. In kind it is toxicity, cell-based. The note with it: read-out: Ratio CC50/EC50.
Series [5] is described as follows: Selectivity index, ratio of CC50 for mock-infected human MT4 cells to EC50 for HIV1 3B expressing wild type reverse transcriptase. It counts as toxicity, cell-based. The note with it: read-out: Ratio CC50/EC50.
Series [6] has as its system Human immunodeficiency virus 1. Kind of series: Antiviral activity against HIV1 3B expressing wild type reverse transcriptase infected in human MT4 cells assessed as protection against virus-induced cytopathic effect after 5 days by MTT assay. In kind it is functional, cell-based. As to conditions: Human immunodeficiency virus 1, 3B, MT4, 120 h. In general terms: Cytopathic effects are the visible damage that an infection or toxin causes in cultured cells.

Series [7] has as its target Human immunodeficiency virus type 1 reverse transcriptase (Human immunodeficiency virus 1, UniProt Q72547). Put plainly: Inhibition of recombinant wild type HIV1 p66/p51 using poly(rA) template/oligo(dT)16 primer after 40 mins by PicoGreen-based spectrofluorometric method.

Turning to `Cc1cc(C)c(Oc2cc(Cl)nc(Nc3ccc(CN4CCOCC4)cc3)c2)c(C)c1`, the values for the concentration giving a half-maximal response (EC50) in series [1] and in series [6] were > 26000 nM and 2400 nM, respectively. Also, in series [2], the cytotoxic concentration (CC50) (in general, the concentration that lowers cell viability or growth by half) at 120 h was determined as 26000 nM. Besides, the solubility (as a rule, the dissolved amount per volume that the medium holds) in series [3] was > 57 µM. Also, the values for the selectivity ratio in series [4] and in series [5] were < 1 and 11, respectively. Further, the half-maximal inhibitory concentration (IC50) (as a rule, the concentration needed to halve the response being measured) in series [7] is 2620 nM.

Take `Cc1cc(C)c(Oc2cc(Cl)nc(NC3CCN(Cc4ccc(S(C)(=O)=O)cc4)CC3)c2)c(C)c1`: the figures for the 50% effective concentration (EC50) in series [1] and in series [6] were > 1100 nM and 25 nM, respectively. The CC50 at 120 h in series [2] stood at 1200 nM. Besides, in series [3], the solubility is > 49 µM. The figures for the selectivity ratio in series [4] and in series [5] were < 1 and 46, respectively. Also, the IC50 in series [7] was 160 nM.

In the case of `Cc1cc(C#N)cc(C)c1Oc1cc(Cl)nc(NC2CCN(Cc3ccc(C(N)=O)cc3)CC2)c1`, the concentration for a half-maximal effect (EC50) (as a rule, the concentration at which the effect is half-maximal) was ≥ 9700 nM in series [1] and 10 nM in series [6]. Further, in series [2], the 50% cytotoxic concentration (CC50) at 120 h is 9800 nM. The solubility in series [3] is > 51 µM. The selectivity ratio in series [4] is ≤ 1; in series [5], 1010. Further, the 50% inhibitory concentration (IC50) in series [7] was found to be 90 nM.

With `Cc1cc(C)c(Oc2cc(Cl)nc(Nc3ccc(C#N)cc3)c2)c(C)c1`, the EC50 was > 10800 nM in series [1] and 410 nM in series [6]. The CC50 at 120 h in series [2] amounted to 10800 nM. Besides, the solubility in series [3] is > 14 µM. Further, the selectivity ratio is < 1 in series [4] and 26 in series [5]. Moreover, in series [7], the concentration for half-maximal inhibition (IC50) was determined as 248 nM.

Regarding `COc1cc(Oc2c(C)cc(C#N)cc2C)cc(NC2CCN(CC3CC3)CC2)n1`, the CC50 at 120 h in series [2] was determined as 8600 nM. Besides, the solubility in series [3] was > 307 µM. Moreover, the selectivity ratio in series [5] was ≤ 1. Besides, the EC50 in series [6] was ≥ 9200 nM.

As for `Cc1cc(C)c(Oc2cc(Cl)nc(NC3CCN(Cc4ccc(C(N)=O)cc4)CC3)c2)c(C)c1`, the results for the EC50 in series [1] and in series [6] were > 8200 nM and 35 nM, respectively. The CC50 at 120 h in series [2] is 8200 nM. Further, the solubility in series [3] is > 52 µM. For the same compound, the selectivity ratio in series [4] was < 1; in series [5] it was 230. For the same compound, in series [7], the IC50 worked out at 98 nM.

With `Cc1cc(C#N)cc(C)c1Oc1cc(Cl)nc(Nc2ccc(CN3CCOCC3)cc2)c1`, the concentration giving a half-maximal response (EC50) in series [1] was > 6900 nM; in series [6], 930 nM. For the same compound, the cytotoxic concentration (CC50) at 120 h in series [2] stood at 7000 nM. In series [3], the solubility was > 56 µM. Besides, the selectivity ratio in series [4] is < 1; in series [5], 7. Moreover, the half-maximal inhibitory concentration (IC50) in series [7] amounted to 1320 nM.

For the compound `Cc1cc(C#N)cc(C)c1Oc1cc(Cl)nc(NC2CCN(CC3CCC3)CC2)c1`, the concentration for a half-maximal effect (EC50) in series [1] and in series [6] was > 4200 nM throughout. In series [2], the CC50 at 120 h worked out at 4200 nM. Also, the solubility in series [3] is > 59 µM. For the same compound, the selectivity ratio in series [4] and in series [5] was < 1 in each case.

On to `Cc1cc(C#N)cc(C)c1Oc1cc(Cl)nc(Nc2ccc(C#N)cc2)c1`, for which the EC50 was > 57700 nM in series [1] and 1070 nM in series [6]. In addition, the cytotoxic concentration (CC50) at 120 h in series [2] was 57700 nM. In addition, in series [3], the solubility was > 3 µM. Further, the selectivity ratio in series [4] was < 1; in series [5], 54. Further, the IC50 in series [7] is 773 nM.

For `COc1cc(Oc2c(C)cc(C#N)cc2C)cc(NC2CCN(Cc3ccccc3)CC2)n1`, the EC50 in series [1] is > 3500 nM; in series [6], 100 nM. For the same compound, the cytotoxic concentration (CC50) at 120 h in series [2] amounted to 3500 nM. The solubility in series [3] is > 56 µM. The selectivity ratio in series [4] was < 1; in series [5] it was 37. Also, in series [7], the half-inhibitory concentration (IC50) turned out to be 264 nM.

On to `COc1cc(Oc2c(C)cc(C#N)cc2C)cc(NC2CCN(Cc3ccc(S(C)(=O)=O)cc3)CC2)n1`, for which the 50% effective concentration (EC50) was > 1700 nM in series [1] and 12 nM in series [6]. Further, the 50% cytotoxic concentration (CC50) at 120 h in series [2] is 1700 nM. Further, the solubility in series [3] was > 48 µM. Besides, the selectivity ratio in series [4] was < 1; in series [5], 133. Further, in series [7], the IC50 was 175 nM.

`Nc1ccn([C@@H]2CS[C@H](CO)O2)c(=O)n1` [LAMIVUDINE]: the CC50 at 120 h in series [2] was > 87200 nM. Moreover, the selectivity ratio in series [5] is > 28. For the same compound, the concentration for a half-maximal effect (EC50) in series [6] came out at 3100 nM.

For the compound `Cc1ccnc2c1NC(=O)c1cccnc1N2C1CC1` [NEVIRAPINE], in series [1], the EC50 was ≥ 9800 nM. Besides, in series [2], the 50% cytotoxic concentration (CC50) at 120 h is > 15000 nM.

With `Cc1cc(C#N)cc(C)c1Oc1cc(Cl)nc(NC2CCN(Cc3ccncc3)CC2)c1`, the results for the EC50 in series [1] and in series [6] were ≥ 6500 nM and 9.1 nM, respectively. The CC50 at 120 h in series [2] worked out at 9700 nM. Further, the solubility in series [3] was > 56 µM. For the same compound, the selectivity ratio in series [4] was ≤ 1; in series [5] it was 1070. In addition, the IC50 in series [7] amounted to 40 nM.

As to `COc1cc(Oc2c(C)cc(C#N)cc2C)cc(NC2CCN(Cc3ccc(C(N)=O)cc3)CC2)n1`, the EC50 was ≥ 6600 nM in series [1] and 20 nM in series [6]. Besides, the cytotoxic concentration (CC50) at 120 h in series [2] was 22900 nM. Further, the solubility in series [3] was > 257 µM. The selectivity ratio in series [4] is ≤ 3; in series [5], 1140. Further, the IC50 in series [7] was 113 nM.

Take `Cc1cc(C#N)cc(C)c1Oc1cc(Cl)nc(NC2CCN(Cc3ccccc3)CC2)c1`: the half-maximal effective concentration (EC50) was > 4300 nM in series [1] and 49 nM in series [6]. In addition, the 50% cytotoxic concentration (CC50) at 120 h in series [2] was 4300 nM. The solubility in series [3] was > 56 µM. The selectivity ratio in series [4] was < 1; in series [5] it was 88. The IC50 in series [7] is 168 nM.

For `Cc1cc(C)c(Oc2cc(Cl)nc(NC3CCN(Cc4ccncc4)CC3)c2)c(C)c1`, the EC50 in series [1] was ≥ 10500 nM; in series [6] it was 42 nM. Further, the CC50 at 120 h in series [2] turned out to be 10400 nM. For the same compound, the solubility in series [3] is > 57 µM. The selectivity ratio in series [4] was ≤ 1; in series [5], 247. Also, the IC50 in series [7] worked out at 82 nM.

Consider `Cc1cn([C@H]2C[C@H](N=[N+]=[N-])[C@@H](CO)O2)c(=O)[nH]c1=O` [ZIDOVUDINE], for which, in series [2], the 50% cytotoxic concentration (CC50) at 120 h was > 93500 nM. For the same compound, the selectivity ratio in series [4] was > 15000; in series [5], > 13400.

For the compound `Cc1cc(C)c(Oc2cc(Cl)nc(NC3CCN(CC4CCC4)CC3)c2)c(C)c1`, the CC50 at 120 h in series [2] came out at 4600 nM. The solubility in series [3] was > 60 µM. The selectivity ratio in series [5] was < 1. For the same compound, in series [6], the EC50 is > 4600 nM.

As for `Cc1cc(C#N)cc(C)c1Oc1nc(Nc2ccc(C#N)cc2)nc(N)c1Br` [ETRAVIRINE], the CC50 at 120 h in series [2] is > 4600 nM. Further, the solubility in series [3] is < 1 µM. Moreover, in series [6], the EC50 worked out at 9.5 nM.

Consider `O=C1Nc2ccc(Cl)cc2[C@@](C#CC2CC2)(C(F)(F)F)O1` [EFAVIRENZ], for which the EC50 in series [1] worked out at 240 nM; in series [6] it was 6.8 nM. Further, the CC50 at 120 h in series [2] was > 6300 nM.

With `Cc1cc(C)c(Oc2cc(Cl)nc(NC3CCN(CC4CC4)CC3)c2)c(C)c1`, the CC50 at 120 h in series [2] was 5200 nM. Also, in series [3], the solubility was > 62 µM. The selectivity ratio in series [5] was < 1. Further, in series [6], the concentration for a half-maximal effect (EC50) is > 5200 nM.

For `CC(C)Nc1cccnc1N1CCN(C(=O)c2cc3cc(NS(C)(=O)=O)ccc3[nH]2)CC1` [DELAVIRDINE], the EC50 in series [1] is > 36200 nM. Besides, the CC50 at 120 h in series [2] was > 36200 nM. For the same compound, the selectivity ratio in series [5] is > 59.

On to `Cc1cc(C#N)cc(C)c1Oc1cc(Cl)nc(NC2CCN(CC3CC3)CC2)c1`, for which, in series [2], the half-maximal cytotoxic concentration (CC50) at 120 h was 9600 nM. Also, the solubility in series [3] was > 304 µM. Moreover, the selectivity ratio in series [5] was ≤ 2. The 50% effective concentration (EC50) in series [6] is ≥ 6400 nM.
